Assay results from the supplement of paper PMC4862054.

System: Hs578T
Test: normalised response (% of control), CellTox Green; higher = less cell death (100 = DMSO, 0 = benzethonium chloride kill control)
Conditions: incubation time: 72 h
How it was run: (§1)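 Each value is the plate-normalised signal at one concentration of the series. Breast cancer cell lines (20 µl suspension) were incubated 72 h in 384-well plates with compound at 5 concentrations in 10-fold steps over a compound-specific 10,000-fold range. CellTox Green and then CellTiter-Glo were read, and each plate was scaled to 0.1 % DMSO (100) and a positive kill control (0).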

Point of comparison: `O=C(O)CCCc1ccc(N(CCCl)CCCl)cc1` [Chlorambucil] (10000 nM), normalised response 124%. Against it:
- Nc1ncnc2c1c(COc1cccc(Cl)c1)nn2C1CCOCC1 (10000 nM) — lower, 110%
- O=C1NC(=O)[C@@H](c2cn3c4c(cccc24)CCC3)[C@@H]1c1c[nH]c2ccccc12 [Tivantinib] (1000 nM) — lower, 52.5%

System: HCC1599
Test: as above
Conditions: incubation time: 72 h
How it was run: as §1

Point of comparison: `NS(=O)(=O)OC[C@@H]1C[C@@H](n2ccc3c(N[C@H]4CCc5ccccc54)ncnc32)C[C@@H]1O` [Pevonedistat] (10000 nM), normalised response 72.6%. Against it:
- CN(C)C[C@@H]1CCn2cc(c3ccccc32)C2=C(C(=O)NC2=O)c2cn(c3ccccc23)CCO1 [Ruboxistaurin] (10000 nM) — higher, 91.6%
- C[C@]12CC[C@H](O)CC1=CC[C@@H]1[C@@H]2CC[C@]2(C)C(c3cccnc3)=CC[C@@H]12 [Abiraterone] (5000 nM) — higher, 113%
- CC(C)c1c(C(=O)Nc2ccccc2)c(-c2ccccc2)c(-c2ccc(F)cc2)n1CC[C@@H](O)C[C@@H](O)CC(=O)O [Atorvastatin] (10000 nM) — higher, 103%
- Cn1c(=O)n(-c2ccc(C(C)(C)C#N)cc2)c2c3cc(-c4cnc5ccccc5c4)ccc3ncc21 [Dactolisib] (1000 nM) — higher, 107%
- Nc1ncnc2c1c(COc1cccc(Cl)c1)nn2C1CCOCC1 (10000 nM) — higher, 106%
- O=C1NC(=O)[C@@H](c2cn3c4c(cccc24)CCC3)[C@@H]1c1c[nH]c2ccccc12 [Tivantinib] (1000 nM) — higher, 77.5%
- O=C(O)CCCc1ccc(N(CCCl)CCCl)cc1 [Chlorambucil] (10000 nM) — higher, 105%

System: MDA-MB-231
Test: as above
Conditions: incubation time: 72 h
How it was run: as §1

Point of comparison: `Nc1ncnc2c1c(COc1cccc(Cl)c1)nn2C1CCOCC1` (10000 nM), normalised response 106%. Against it:
- NS(=O)(=O)OC[C@@H]1C[C@@H](n2ccc3c(N[C@H]4CCc5ccccc54)ncnc32)C[C@@H]1O [Pevonedistat] (10000 nM) — lower, 100%
- CN(C)C[C@@H]1CCn2cc(c3ccccc32)C2=C(C(=O)NC2=O)c2cn(c3ccccc23)CCO1 [Ruboxistaurin] (10000 nM) — lower, -85%
- C[C@]12CC[C@H](O)CC1=CC[C@@H]1[C@@H]2CC[C@]2(C)C(c3cccnc3)=CC[C@@H]12 [Abiraterone] (5000 nM) — higher, 122%
- CC(C)c1c(C(=O)Nc2ccccc2)c(-c2ccccc2)c(-c2ccc(F)cc2)n1CC[C@@H](O)C[C@@H](O)CC(=O)O [Atorvastatin] (10000 nM) — lower, -37.9%
- Cn1c(=O)n(-c2ccc(C(C)(C)C#N)cc2)c2c3cc(-c4cnc5ccccc5c4)ccc3ncc21 [Dactolisib] (1000 nM) — higher, 126%
- O=C1NC(=O)[C@@H](c2cn3c4c(cccc24)CCC3)[C@@H]1c1c[nH]c2ccccc12 [Tivantinib] (1000 nM) — lower, 11.1%
- O=C(O)CCCc1ccc(N(CCCl)CCCl)cc1 [Chlorambucil] (10000 nM) — lower, 104%

System: HCC1143
Test: as above
Conditions: incubation time: 72 h
How it was run: as §1

Point of comparison: `Cn1c(=O)n(-c2ccc(C(C)(C)C#N)cc2)c2c3cc(-c4cnc5ccccc5c4)ccc3ncc21` [Dactolisib] (1000 nM), normalised response 130%. Against it:
- NS(=O)(=O)OC[C@@H]1C[C@@H](n2ccc3c(N[C@H]4CCc5ccccc54)ncnc32)C[C@@H]1O [Pevonedistat] (10000 nM) — lower, 87.8%
- CN(C)C[C@@H]1CCn2cc(c3ccccc32)C2=C(C(=O)NC2=O)c2cn(c3ccccc23)CCO1 [Ruboxistaurin] (10000 nM) — lower, 103%
- C[C@]12CC[C@H](O)CC1=CC[C@@H]1[C@@H]2CC[C@]2(C)C(c3cccnc3)=CC[C@@H]12 [Abiraterone] (5000 nM) — lower, 107%
- CC(C)c1c(C(=O)Nc2ccccc2)c(-c2ccccc2)c(-c2ccc(F)cc2)n1CC[C@@H](O)C[C@@H](O)CC(=O)O [Atorvastatin] (10000 nM) — lower, 101%
- Nc1ncnc2c1c(COc1cccc(Cl)c1)nn2C1CCOCC1 (10000 nM) — lower, 104%
- O=C1NC(=O)[C@@H](c2cn3c4c(cccc24)CCC3)[C@@H]1c1c[nH]c2ccccc12 [Tivantinib] (1000 nM) — lower, 104%
- O=C(O)CCCc1ccc(N(CCCl)CCCl)cc1 [Chlorambucil] (10000 nM) — lower, 102%

System: CAL-148
Test: as above
Conditions: incubation time: 72 h
How it was run: as §1

Point of comparison: `O=C1NC(=O)[C@@H](c2cn3c4c(cccc24)CCC3)[C@@H]1c1c[nH]c2ccccc12` [Tivantinib] (1000 nM), normalised response 71.5%. Against it:
- NS(=O)(=O)OC[C@@H]1C[C@@H](n2ccc3c(N[C@H]4CCc5ccccc54)ncnc32)C[C@@H]1O [Pevonedistat] (10000 nM) — higher, 90.7%
- CN(C)C[C@@H]1CCn2cc(c3ccccc32)C2=C(C(=O)NC2=O)c2cn(c3ccccc23)CCO1 [Ruboxistaurin] (10000 nM) — lower, 10.5%
- C[C@]12CC[C@H](O)CC1=CC[C@@H]1[C@@H]2CC[C@]2(C)C(c3cccnc3)=CC[C@@H]12 [Abiraterone] (5000 nM) — higher, 87.5%
- CC(C)c1c(C(=O)Nc2ccccc2)c(-c2ccccc2)c(-c2ccc(F)cc2)n1CC[C@@H](O)C[C@@H](O)CC(=O)O [Atorvastatin] (10000 nM) — higher, 99.2%
- Cn1c(=O)n(-c2ccc(C(C)(C)C#N)cc2)c2c3cc(-c4cnc5ccccc5c4)ccc3ncc21 [Dactolisib] (1000 nM) — lower, -65%
- Nc1ncnc2c1c(COc1cccc(Cl)c1)nn2C1CCOCC1 (10000 nM) — higher, 96%
- O=C(O)CCCc1ccc(N(CCCl)CCCl)cc1 [Chlorambucil] (10000 nM) — higher, 95.3%

System: CAL-120
Test: as above
Conditions: incubation time: 72 h
How it was run: as §1

Point of comparison: `NS(=O)(=O)OC[C@@H]1C[C@@H](n2ccc3c(N[C@H]4CCc5ccccc54)ncnc32)C[C@@H]1O` [Pevonedistat] (10000 nM), normalised response 97%. Against it:
- CN(C)C[C@@H]1CCn2cc(c3ccccc32)C2=C(C(=O)NC2=O)c2cn(c3ccccc23)CCO1 [Ruboxistaurin] (10000 nM) — lower, 76.3%
